Earlier results in patent publication US20210198372A1, “METHODS FOR DOSING AND FOR MODULATION OF GENETICALLY ENGINEERED CELLS” (Juno Therapeutics, Inc., priority 2017, published 2021).

Settings: equivalence in terms of potency for various glucocorticoids; route (IV or PO; IV; none)

With C[C@H]1C[C@@H]2[C@H]([C@@H](O)C[C@@]3(C)[C@H]2CC[C@]3(O)C(=O)COC(=O)CCC(=O)O)[C@@]2(C)C=CC(=O)C=C12 [Methylprednisolone sodium succinate] as the compound, how does the “Equivalency Potency” value read?
Its value is 4.

Which “Equivalency Potency” value does the source give for C[C@]12CCC(=O)C=C1CC[C@@H]1[C@@H]2[C@@H](O)C[C@@]2(C)[C@H]1CC[C@]2(O)C(=O)CO [Hydrocortisone] here?
The value was 20.

Which “Equivalency Potency” value does the source give for C[C@]12C=CC(=O)C=C1CC[C@@H]1[C@@H]2[C@@H](O)C[C@@]2(C)[C@H]1CC[C@]2(O)C(=O)CO [Prednisolone] here?
The value was 5.
